Literature values in patent US10342765B2, “Therapeutic compositions comprising monoterpenes” (priority 2009, dated 2019).
Entries after “also recorded” stand apart in the source; their conditions may differ.

Experiments:
malignant gliomas = details: patients with malignant gliomas; nasal inhalation
[1] = nasal inhalation; nasal inhaler four times daily
[2] = test system: systemic malignancies including breast, lung, pancreatic, melanomas

SMILES: C=C(C)[C@@H]1CC=C(CO)CC1 [POH, perillyl alcohol]
- tumor size (radiographic) (malignant gliomas): radiographic reduction in tumor size
- tolerability in patients [1]: safely tolerated; also recorded: well tolerated, with minimal side effects
- effectiveness against systemic malignancies [2]: effective
